The structures appear in SMILES notation.

In experiment [1] the test system is VEGF promoter (rat VEGF gene promoter, Hep3B-VEGFLuciferase cells). The experiment in a line: Luciferase assay in Hep3B-VEGFLuciferase cells, deferoxamine-induced hypoxia. Type of experiment: cell-based. Particulars: Homo sapiens, deferoxamine about 100 μM, 18-20 hours, 50% inhibition of the luciferase signal. The procedure:
(§1) The compounds having inhibitory activity in the Hif-1α/p300 assay described above were evaluated using a cellular test on genetically modified human hepatocarcinoma Hep3B cells (Hep3B-VEGFLuciferase) in order to stably express a vector in which the Open Reading Frame of firefly Luciferase was under the control of the rat VEGF gene promoter.
Hif-1 Induction using deferoxamine (which induces hypoxia) induces luciferase transcription through activation of the VEGF promoter, which in turn causes an increase in luciferase activity, which can be measured with a commercially available kit. The compounds interfering with the Hif-1α/p300 complex inhibit Hif-dependent luciferase activation, resulting in a reduction of luciferase activity. This assay therefore allows to evaluate the activity of the compounds towards the VEGF promoter, which is essential to VEGF production and the subsequent tumor angiogenesis.
(§2) The Hep-3B-VEGFLuciferase cell line was obtained according to the following procedure.
(§3) Human hepatocarcinoma cells Hep-3B (ATCC reference No. HB-8064) were seeded onto 6 wells plates at a concentration of 2.5×10^5 cells/well in 2 ml DMEM/10% FCS and the following day were transfected using Fugene 6 (Roche Biochemicals®). In each well, the transfection mixtures contained 6 μl of the transfection reagent Fugene 6, 1 μg of the pxp2-VEGF-luciferase reporter plasmid (VEGF rat promoter, NCBI GenBank No. of accession U22373, Levy et al., J. Biol. Chem. 270 (22), 13333-13340. 1995), and 10 ng of pcDNA3.1(+)plasmid (INVITROGEN) which makes cells resistant to neomycin. Transfection was carried out according to the manufacturer's instructions.
(§4) A suitable cell population (phenotypically resistant to neomycin) was selected by means of a cloning approach based on the “dilution limit” procedure (Sambrook J., Fritsch E. F. and Maniatis T. (1989) Molecular Cloning, A Laboratory Manual; Cold Spring Harbor Laboratories). The subsequent assays for Luciferase expression/activity “Luciferase assay” and for the quantification of secreted VEGF in the supernatant “ELISA secreted VEGF test”) were carried out with the stably transfected selected cells.
(§5) The following experimental protocol was used:
(§6) Day 1. Hep-3B-VEGF Luciferase cells were seeded onto 96-wells “blank” plates (a product by Greiner) at a density of 1×10^4 cells/well/125 μl of medium, then left to adhere overnight in thermostat (37° C./5% CO2).
(§7) Day 2. 75 μl of “3.2× working solutions” of compound (previously prepared in culture medium so that the DMSO concentration is 1.6% v/v) were added to the cells (partial volume/well=200 μl, partial concentration of compound=1.2×, partial concentration of DMSO=0.6%). After 1 hour incubation in thermostat, hypoxia was induced chemically by addition of 40 μl/well of a 6× (600 μM) stock solution of deferoxamine (final volume/well=240 μl, final concentration of compound=1×, final concentration of DMSO=0.5%, final concentration of deferoxamine=1×≈100 μM). The plates were then thermostated for further 18-20 hours.
(§8) Day 3. The “Luciferase assay” and the “secreted VEGF ELISA test” were carried out as follows.
Quantification of the expression of the Luciferase reporter gene was performed by means of the Bright Glo Reagent (Promega). After removing the supernatant and washing once with PBS, 40 μl/well of Bright Glo Reagent were added to blank 96-well plates with Hep3B/VEGF-Luciferase cells. The expression levels of the reporter gene were determined by reading the plates with a luminometer.
(§9) IC50 values (concentration of the compound that causes 50% inhibition of the luciferase signal or 50% reduction of secreted VEGF) for some compounds of the invention are reported in table 2: […]

In experiment [2] the target is T1, Biot-Hif-1α^786-826/GST-p300^323/423 (Homo sapiens, UniProt Q09472).
T1 construct: the p300 region ranging from amino acids 323 to 423; fragment corresponding to C-terminal 786-826 amino acids; host or cells: E. coli BL21 (DE3), vector pGEX-4T-1
The experiment in a line: Primary biochemical assay (DELFIA fluorescence) for inhibition of the Hif-1α/p300 interaction. Type of experiment: binding. The settings on record: 10 concentrations from 90 μM to 0.178 μM, 1 h at 25° C. The procedure: Primary Biochemical Assay for the Inhibition of Biot-Hif-1α^786-826/GST-p300^323/423
The compounds were evaluated for their ability to inhibit the interaction between Hif-1α and p300 using a fluorescence assay (DELFIA™). The procedure described by Freedman S J at al., Nature Structural Biology 2003, 10 (7), 504-512 was suitably modified.
The human biotinylated Hif-1α fragment corresponding to C-terminal 786-826 amino acids (Biotinylated Hif-1α^786-826) was obtained from AnaSpec Inc (San Jose, Calif., USA) and used without further purifications.
A construct expressing the GST-p300^323-423 fragment was transformed in the BL21 (DE3) strain of E. coli. Said construct was obtained by cloning in the expression vector pGEX-4T-1 (Amersham No. 27-45-80-01) the DNA sequence which encodes for the p300 region ranging from amino acids 323 to 423; the DNA sequence was obtained by PCR (Polymerase Chain Reaction). The protein region was induced with 1 mM isopropyl-1-tio-β-D-galactopyranoside (IPTG). The bacteria were lysed by sonication in the presence of a suitable buffer (50 mM Tris*HCl pH 8.00, 100 mM NaCl, 0.1 mM ZnSO4, 1 mM DTT, 0.1 mg/ml lysozyme and a tablet of Complete EDTA-free Protease Inhibitor Cocktail Tablets (Roche, catalogue number 1 873 580)) and the GST fusion protein present in the soluble fraction was purified on a Glutathione-Sepharose 4B resin (Amersham Biosciences; no. 27-4574-01). The protein final concentration was determined according to Bradford with the Biorad assay (Bradford M., Anal. Biochem., 72, 248, (1976)). The purity of the sample was evaluated by SDS-PAGE. Samples were stored at −80° C. in 50% glycerol.
The assay was carried out using NUNC Maxisorp 96 wells plates as follows.
C96 NUNC Maxisorp plates (from Nunc, product No. 446612) were incubated overnight with streptavidin (Sigma; product No. S 4762) to a final concentration of 1 μg/ml in PBS buffer (Phosphate Buffered Saline 10 mM sodium phosphate, 150 mM sodium chloride pH 7.4). Each well was subsequently washed with 3×300 μl of TBST buffer (50 mM Tris*HCl pH 8.0, 150 mM NaCl, 0.05% (v/v) Tween 20). Each well was then added with 100 μl of a 10 nM solution of biotinylated Hif-1α^786-826 in TBSB (50 mM Tris-HCl pH 8.0, 150 mM NaCl, 5% (w/v) BSA (Sigma, product No. A 2153)) and incubated for 1 h at 25° C. In the last row of each plate, only the TBSB buffer was added. Each well was subsequently washed three times with 300 μl of TBST buffer. The thus prepared plate represented the assay plate.
Separately, the plate (daughter plate) containing in each well 10 μl of each test compound dissolved in DMSO to a concentration of 10 μM was prepared. This plate was added with 100 μl of a 111 pM solution of GST-p300^323-423 diluted in the incubation buffer (TBSB added with 0.1% (v/v) Tween 20, 0.5 mM DTT, 10 μM ZnCl2) and the whole was mixed. 100 μl of the mixture contained in the daughter plate were immediately transferred to the assay plate.
Each daughter plate was prepared with 80 different compounds at a 10 μM concentration, safe for the two last well rows, wherein each well was added with 10 μl of DMSO. These two rows represented the positive (row 11, +Hif-1) and negative (row 12, −Hif-1) controls.
After incubation for 1 h at 25° C., each well was washed with 3×300 μl of TBST buffer (50 mM Tris-HCl pH 8.0. 150 mM NaCl, 0.05% (v/v) Tween 20). Each well was then added with 60.8 ng of an europium-labelled anti-GST antibody (DELFIA Eu-N1 labeled; Perkin Elmer; product no. A D 0251) dissolved in 100 μl of TBST buffer containing 10 μM ZnCl2. After incubation for 1 h at room temperature, each well was washed with 3×300 μl of TBST buffer, then 100 μl of signal amplification solution (Enhancement Solution, Perkin Elmer product No. 1244-105) were added.
The plates were then read using a FUSION alpha-FP-HT reader (Perkin Elmer) in fluorescence mode for time resolution.
The activity of the compounds was calculated as follows. […]

Experiment [3] deals with secreted VEGF (Hep3B-VEGFLuciferase cells). The experiment in a line: Secreted VEGF ELISA test in Hep3B-VEGFLuciferase cells, deferoxamine-induced hypoxia. Particulars: Homo sapiens, supernatant, deferoxamine about 100 μM, 18-20 hours, 50% reduction of secreted VEGF. Type of experiment: cell-based. The procedure:
as §1, §2, §3, §4, §5, §6, §7, §8
“Secreted VEGF ELISA Test”
Quantification of secreted VEGF was performed using the kit “DuoSet Elisa Development System human VEGF” kit (R&D Systems). 100 μl/well of the supernatant from the “blank” 96 well-plates with the cells of the Hep3B/VEGF Luciferase clone were transferred into transparent 96-well plates of (Maxisorp) and assayed according to the indications of the kit manufacturer.
as §9

T1 sequence (Q09472 323-423): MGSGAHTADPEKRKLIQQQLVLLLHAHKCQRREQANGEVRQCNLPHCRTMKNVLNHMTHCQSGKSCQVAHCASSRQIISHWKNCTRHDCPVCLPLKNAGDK

The term IC50 denotes the concentration that gives 50% inhibition. Low values mean higher potency, high ones lower potency. For `CCOC(=O)c1c2c(n(Cc3ccccc3)c1C)C(=O)C(=O)c1ccc(Br)cc1-2` [12(c), Ethyl 8-bromo-2-methyl-3-benzyl-4,5-dioxo-4,5-dihydro-3H-benzo[e]indole-1-carboxylate], the 50% inhibitory concentration (IC50) worked out at 1.08 µM in experiment [1], 7.3 µM in experiment [2] and 14.5 µM in experiment [3].

As for `CCOC(=O)c1c2c(n(C)c1CO)C(=O)C(=O)c1ccc(Br)cc1-2` [12(a), Ethyl 8-bromo-2-hydroxymethyl-3-methyl-4,5-dioxo-4,5-dihydro-3H-benzo[e]indole-1-carboxylate], the IC50 stood at 0.32 µM in experiment [1], 14.2 µM in experiment [2] and 2.03 µM in experiment [3].

Regarding `CCOC(=O)c1c2c(n(C)c1CN(C)C)C(=O)C(=O)c1ccc(Br)cc1-2` [Example 5, Ethyl 8-bromo-2-dimethylaminomethyl-3-methyl-4,5-dioxo-4,5-dihydro-3H-benzo[e]indole-1-carboxylate], the IC50 in experiment [1] came out at 0.26 µM; in experiment [2] it was 1.5 µM; in experiment [3], 1.2 µM.

Take `CCOC(=O)c1c2c(n(C)c1CN(CC)CC)C(=O)C(=O)c1ccc(Br)cc1-2` [12(b), Ethyl 8-bromo-2-diethylaminomethyl-3-methyl-4,5-dioxo-4,5-dihydro-3H-benzo[e]indole-1-carboxylate]: the 50% inhibitory concentration (IC50) in experiment [1] turned out to be 0.32 µM; in experiment [2], 13.3 µM; in experiment [3] it was 2.03 µM.

Take `CCOC(=O)c1c2c(n(C)c1CNC(C)C)C(=O)C(=O)c1ccc(Br)cc1-2` [Example 6, Ethyl 8-bromo-2-isopropylaminomethyl-3-methyl-4,5-dioxo-4,5-dihydro-3H-benzo[e]indole-1-carboxylate]: the values for the IC50 in experiment [1], in experiment [2] and in experiment [3] were 0.3 µM, 9.1 µM and 0.3 µM, respectively.

In the case of `CCOC(=O)c1c2c(n(CC(=O)OC(C)(C)C)c1C)C(=O)C(=O)c1ccc(Br)cc1-2` [Example 7, Ethyl 8-bromo-3-tert-butoxycarbonylmethyl-2-methyl-4,5-dioxo-4,5-dihydro-3H-benzo[e]indole-1-carboxylate], the concentration for half-maximal inhibition (IC50) in experiment [1] came out at 1.6 µM; in experiment [2] it was 14.9 µM; in experiment [3], 9.3 µM.

With `CCOC(=O)c1c2c(n(C)c1C)C(=O)C(=O)c1ccc(Br)cc1-2` [Example 3, Ethyl 8-bromo-2,3-dimethyl-4,5-dioxo-4,5-dihydro-3H-benzo[e]indole-1-carboxylate], the results for the IC50 in experiment [1], in experiment [2] and in experiment [3] were 0.47 µM, 3.3 µM and 10.7 µM, respectively.

Take `CCOC(=O)c1c2c(n(CC(=O)O)c1C)C(=O)C(=O)c1ccc(Br)cc1-2` [Example 8, Ethyl 8-bromo-3-carboxymethyl-2-methyl-4,5-dioxo-4,5-dihydro-3H-benzo[e]indole-1-carboxylate]: the concentration for half-maximal inhibition (IC50) was above 12.5 µM in experiment [1], 32.9 µM in experiment [2] and above 12.5 µM in experiment [3].

Turning to `CCOC(=O)c1c(C)[nH]c2c1-c1cc(Br)ccc1C(=O)C2=O` [Example 1, Ethyl 8-bromo-2-methyl-4,5-dioxo-4,5-dihydro-3H-benzo[e]indole-1-carboxylate], the IC50 in experiment [1] worked out at 0.45 µM; in experiment [2] it was 13.2 µM; in experiment [3] it was 5.78 µM.

On to `CCOC(=O)c1c2c(n(CC(N)=O)c1C)C(=O)C(=O)c1ccc(Br)cc1-2` [Example 9, Ethyl 8-bromo-3-carbamoylmethyl-2-methyl-4,5-dioxo-4,5-dihydro-3H-benzo[e]indole-1-carboxylate], for which the IC50 was 0.6 µM in experiment [1], 9.6 µM in experiment [2] and above 12.5 µM in experiment [3].

In the case of `CCOC(=O)c1c2c(n(C)c1CN1CCOCC1)C(=O)C(=O)c1ccc(Br)cc1-2` [Example 4, Ethyl 8-bromo-3-methyl-2-(morpholin-4′-yl)methyl-4,5-dioxo-4,5-dihydro-3H-benzo[e]indole-1-carboxylate], the values for the IC50 in experiment [1], in experiment [2] and in experiment [3] were 1.1 µM, 11 µM and 4.8 µM, respectively.
